Data reported in article PMC3914206.

How the values were obtained:
panel of 442 kinases [1] = biological target: T1, panel of 442 kinases (Homo sapiens, UniProt P06239); type: binding; conditions: Compound Concentration 10 µM
T1 construct: purchased KINOMEscan
From the text: (§1) We assessed the selectivity of members of this scaffold using the KINOMEscan methodology across a near comprehensive panel of 442 kinases [[18,27]].

panel of 442 kinases [2] = biological target: T2, panel of 442 kinases (Homo sapiens, UniProt Q8IYT8); type: binding; conditions: kinase ULK2; compound concentration 10 µM
T2 construct: purchased KINOMEscan
T2 sequence (Q8IYT8 1-1036): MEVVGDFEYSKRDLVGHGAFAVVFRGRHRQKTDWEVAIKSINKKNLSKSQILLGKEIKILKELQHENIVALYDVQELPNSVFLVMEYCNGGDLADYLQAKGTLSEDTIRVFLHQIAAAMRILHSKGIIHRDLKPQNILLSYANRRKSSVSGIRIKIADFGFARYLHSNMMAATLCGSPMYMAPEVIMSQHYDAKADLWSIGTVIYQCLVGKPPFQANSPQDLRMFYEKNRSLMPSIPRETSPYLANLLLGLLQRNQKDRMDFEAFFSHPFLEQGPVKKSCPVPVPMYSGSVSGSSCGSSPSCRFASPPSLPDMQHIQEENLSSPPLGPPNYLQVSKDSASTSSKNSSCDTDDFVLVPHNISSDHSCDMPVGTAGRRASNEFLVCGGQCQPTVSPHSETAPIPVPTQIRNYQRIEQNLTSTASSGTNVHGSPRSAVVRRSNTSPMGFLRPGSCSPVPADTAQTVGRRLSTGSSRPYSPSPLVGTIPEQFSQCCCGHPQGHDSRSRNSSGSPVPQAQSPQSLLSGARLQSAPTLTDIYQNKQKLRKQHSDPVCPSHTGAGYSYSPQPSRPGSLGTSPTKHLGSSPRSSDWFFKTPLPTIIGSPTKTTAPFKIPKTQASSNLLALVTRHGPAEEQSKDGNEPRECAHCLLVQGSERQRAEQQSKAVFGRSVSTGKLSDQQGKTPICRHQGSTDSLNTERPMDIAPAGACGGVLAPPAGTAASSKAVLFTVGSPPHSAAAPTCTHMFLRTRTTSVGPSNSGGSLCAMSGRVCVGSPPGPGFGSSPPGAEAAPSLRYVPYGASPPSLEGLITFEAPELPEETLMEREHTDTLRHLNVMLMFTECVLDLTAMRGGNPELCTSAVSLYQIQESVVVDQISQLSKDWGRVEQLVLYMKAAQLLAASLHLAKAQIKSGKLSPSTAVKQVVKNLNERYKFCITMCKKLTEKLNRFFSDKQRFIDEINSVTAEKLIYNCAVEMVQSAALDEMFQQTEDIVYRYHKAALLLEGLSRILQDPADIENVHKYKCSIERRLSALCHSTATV
From the text: as §1

T1 sequence (P06239 whole entry): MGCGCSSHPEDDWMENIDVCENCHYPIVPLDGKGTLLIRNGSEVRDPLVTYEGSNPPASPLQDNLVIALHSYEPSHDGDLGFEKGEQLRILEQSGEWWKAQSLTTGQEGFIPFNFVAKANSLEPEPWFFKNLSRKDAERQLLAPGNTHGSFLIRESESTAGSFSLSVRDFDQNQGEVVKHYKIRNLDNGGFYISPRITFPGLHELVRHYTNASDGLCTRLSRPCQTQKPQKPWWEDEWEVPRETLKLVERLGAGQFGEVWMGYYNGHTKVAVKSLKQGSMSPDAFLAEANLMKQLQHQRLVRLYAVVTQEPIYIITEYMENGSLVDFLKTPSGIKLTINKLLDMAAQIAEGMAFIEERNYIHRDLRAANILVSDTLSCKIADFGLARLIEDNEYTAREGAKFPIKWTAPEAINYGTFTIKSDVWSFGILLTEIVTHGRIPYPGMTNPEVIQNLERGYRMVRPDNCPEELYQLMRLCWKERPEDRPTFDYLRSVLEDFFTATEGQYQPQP

SMILES: COc1cc(C(=O)N2CCC(N3CCN(C)CC3)CC2)ccc1Nc1ncc2c(n1)N(C)c1ccccc1C(=O)N2C [15 (LRRK2-IN-1)]
- KINOMEscan: LCK (panel of 442 kinases [1]): 100
- % Ctrl, ULK2 (panel of 442 kinases [2]): 67 % Ctrl

SMILES: COc1cc(C(=O)N2CCC(N3CCN(C)CC3)CC2)ccc1Nc1ncc2c(n1)N1CCc3cccc(c31)C(=O)N2C [Compound 24]
- % Ctrl, ULK2 (panel of 442 kinases [2]): 96 % Ctrl

SMILES: COc1cc(C(=O)N2CCC(N3CCN(C)CC3)CC2)ccc1Nc1ncc2c(n1)N(C1CCCC1)c1ccccc1C(=O)N2C [Compound 25, 11-cyclopentyl-2-((2-methoxy-4-(4-(4-methylpiperazin-1-yl)piperidine-1-carbonyl)phenyl)amino)-5-methyl-5H-benzo[e]pyrimido[5,4-b][1,4]diazepin-6(11H)-one]
- KINOMEscan: LCK (panel of 442 kinases [1]): 66
- % Ctrl, ULK2 (panel of 442 kinases [2]): 75 % Ctrl

SMILES: CCOc1cc(C(=O)N2CCC(N3CCN(C)CC3)CC2)ccc1Nc1ncc2c(n1)N(C1CCCC1)c1ccccc1C(=O)N2C [Compound 26]
- KINOMEscan: LCK (panel of 442 kinases [1]): 100
- % Ctrl, ULK2 (panel of 442 kinases [2]): 98 % Ctrl
